Reference: US10328143B2, “Hemagglutinin-binding peptide” (priority 2014, dated 2019)

Columns and labels:
[1] = system: influenza virus H5N1 Vac-3; type: cell-based; details: for anti-viral effect compared with zanamivir (Relenza): 0.01, 0.1, 1 μM
[2] = system: highly pathogenic avian influenza virus H5N1: A/ws/Hokkaido/1/08 (clade 2.3), A/ws/Mongolia/3/05 (clade 2.2), A/Vietnam/UT3040/04 (clade 1); type: cell-based
[3] = system: influenza virus H1N1-pdm 2619; type: cell-based
[4] = system: influenza virus H2N2-Adachi strain; type: cell-based
[5] = system: highly pathogenic avian influenza virus H5N1 A/whooper swan/Hokkaido/1/08 (5×MLD50); parameters: species or system mice; details: mouse, in vivo

Compound	anti-viral effect compared with positive control iHA-24 [1]	anti-viral effect compared with zanamivir (Relenza) [1]	effect compared with iHA-24 [2]	effect compared with zanamivir [2]	anti-viral effect compared with zanamivir (Relenza) [3]	anti-viral effect compared with zanamivir (Relenza) [4]	number of plaques [4]	lethal rate [5]	lethality [5]	treatment effect [5]
Cyclo(Ac-Trp-Thr-MeGly-Asp-MePhe-MePhe-Ser-MeSer-His-Tyr-Thr-Val-Pro-Arg-Cys)-amide [iHA-100]	markedly higher than that of the peptide iHA-24	comparable to that of zanamivir	markedly higher than that of iHA-24	on the same level as that of zanamivir	comparable to that of zanamivir	comparable to that of zanamivir	dose-dependently decreased the number of plaques	a decrease in lethal rate is observed		
Cyclo(Ac-Trp-Thr-MeGly-Thr-His-Val-Arg-Tyr-Thr-Val-MePhe-Asn-MeAla-Ser-Cys)-amide [iHA-103]	markedly higher than that of the peptide iHA-24	comparable to that of zanamivir								
CC(=O)N[C@H]1[C@H]([C@H](O)[C@H](O)CO)OC(C(=O)O)=C[C@@H]1N=C(N)N [zanamivir]									a dead individual is found	no treatment effect is obtained
Cyclo(Ac-Trp-Ser-MePhe-MeGly-His-Val-His-Tyr-Ser-Val-MePhe-Asn-MeAla-Val-Cys)-amide [iHA-102]	markedly higher than that of the peptide iHA-24	comparable to that of zanamivir								
